# In the NIST ThermoML archive (doi:10.1016/j.jct.2005.03.011):
# ± gives the expanded uncertainty stated by the source.
# Settings: Crystal; for mass density: 298 K, 101.33 kPa, Pycnometric method; for Normal melting temperature: DTA
mass density [kg/m3],Normal melting temperature [°C],Structure (SMILES)
1246 ± 2,38.4 ± 0.5,Clc1ccc2ccccc2n1 [2-chloroquinoline]
,92.4 ± 0.5,"Clc1ccc2c(Cl)ccnc2c1 [4,7-dichloroquinoline]"
,46 ± 0.5,Clc1ccc2ncccc2c1 [6-chloroquinoline]
1251 ± 2,35 ± 0.5,Clc1ccnc2ccccc12 [4-chloroquinoline]
